Tested on: spinal pia-arachnoid membranes
Design: species or system Macaque nemestrina monkeys
Conditions: read-out: IC50, displacement of [125I]SNX-111 binding

[Nle^12] SNX-111 [SNX-194] was tested, and the IC50 was 41 µM.

— patent EP1336409B1 (priority 1995, dated 1997)
